Measurements from EP2607478A1, “Phenanthroline treated MSC” (Universiteit Twente, priority 2011, dated 2013).

Tested on: MSCs
Assay: Whole genome expression analysis (Illumina microarray) of treated MSCs
Assay type: cell-based, Human
Method: MSCs were seeded in T25 flasks at 5000 cells/cm^2 and allowed to attach overnight in proliferation medium. […] After 48 hours, RNA was isolated as described above. From 500 ng of RNA, cRNA was synthesized using the Illumina TotalPrep RNA amplification Kit (Ambion), according to the manufacturer's protocol and the quality of RNA and cRNA was verified on a Bioanalyzer 2100 (Agilent). Microarrays were performed using Illumina HT-12 v4 expression Beadchips, according to the manufacturer's protocol. Briefly, 750 ng of cRNA was hybridized on the array overnight after which the array was washed and blocked. Then, by addition of streptavidin Cy-3 a fluorescent signal was developed. Arrays were scanned on an Illumina iScan reader and raw intensity values were background corrected in GenomeStudio (Illumina). Further data processing and statistical testing were performed with R and Bioconductor statistical software (www.bioconductor.org), using package lumi. Raw intensity values were transformed using variance stabilization and a quantile normalization was performed. A linear modelling approach with empirical Bayesian methods, as implemented in Limma package (54), was applied for differential expression analysis of the resulting probe-level expression values. A gene list, containing only those genes with an absolute 1.5-fold change between different treatments, was uploaded to Ingenuity Pathway Analysis (IPA) software and used for core analysis. Pathways or networks with a p-value of 0.05 were considered statistically significant.

Structure (SMILES): CC(=O)N(O)CCCCCNC(=O)CCC(=O)N(O)CCCCCNC(=O)CCC(=O)N(O)CCCCCN [DFO, reference compound]
- interleukin-8 (Il-8) gene expression (MSCs treated for two days, 150 µM DFO or 200 µM PHE): did not affect this gene at all
- expression of HRE-containing genes (metabolism, cell growth and survival, endothelial genes) (MSCs treated for two days, 150 µM DFO or 200 µM PHE, relative to basic medium): increased expression
- logFC(D142_ DFO - D142_BAS) NTN4 (ProbeID ILMN 2113490, DFO versus Bas): 2,23
- logFC(D142_ DFO - D142_BAS) HIST1H2BD (ProbeID ILMN_1651496, DFO versus Bas): 3,33
- logFC(D142_ DFO - D142_BAS) PFKFB4 (ProbeID ILMN_1653292, DFO versus Bas): 3,53
- logFC(D142_ DFO - D142_BAS) FZD2 (ProbeID ILMN_1653711, DFO versus Bas): -2,10
- logFC(D142_ DFO - D142_BAS) (ProbeID ILMN_1655796, DFO versus Bas): 2,46
- logFC(D142_ DFO - D142_BAS) PLAU (ProbeID ILMN_1656057, DFO versus Bas): -2,69
- logFC(D142_ DFO - D142_BAS) C1orf198 (ProbeID ILMN_1657683, DFO versus Bas): -2,30
- logFC(D142_ DFO - D142_BAS) KRTAP2-1 (ProbeID ILMN_1658448, DFO versus Bas): 2,71
- logFC(D142_ DFO - D142_BAS) SLC2A1 (ProbeID ILMN_1659027, DFO versus Bas): 3,46
- logFC(D142_ DFO - D142_BAS) HIST2H2AA3 (ProbeID ILMN_1659047, DFO versus Bas): 2,07
- logFC(D142_ DFO - D142_BAS) C7orf68 (ProbeID ILMN_1659990, DFO versus Bas): 3,04
- logFC(D142_ DFO - D142_BAS) LOC728285 (ProbeID ILMN_1660067, DFO versus Bas): 2,89
- logFC(D142_ DFO - D142_BAS) PFKFB3 (ProbeID ILMN_1660847, DFO versus Bas): 2,48
- logFC(D142_ DFO - D142_BAS) DDIT4 (ProbeID ILMN_1661599, DFO versus Bas): 4,37
- logFC(D142_ DFO - D142_BAS) CDC20 (ProbeID ILMN_1663390, DFO versus Bas): -3,40
- logFC(D142_ DFO - D142_BAS) MGC87042 (ProbeID ILMN_1663575, DFO versus Bas): -2,17
- logFC(D142_ DFO - D142_BAS) PPP1R14C (ProbeID ILMN_1664855, DFO versus Bas): 2,96
- logFC(D142_ DFO - D142_BAS) ERRFI1 (ProbeID ILMN_1665510, DFO versus Bas): 2,53
- logFC(D142_ DFO - D142_BAS) C1orf24 (ProbeID ILMN_1667966, DFO versus Bas): 2,70
- logFC(D142_ DFO - D142_BAS) PPM1D (ProbeID ILMN_1670875, DFO versus Bas): 2,06
- logFC(D142_ DFO - D142_BAS) ACTA2 (ProbeID ILMN_1671703, DFO versus Bas): -2,61
- logFC(D142_ DFO - D142_BAS) JAM2 (ProbeID ILMN_1672350, DFO versus Bas): 2,05
- logFC(D142_ DFO - D142_BAS) TFRC (ProbeID ILMN_1674243, DFO versus Bas): 2,31
- logFC(D142_ DFO - D142_BAS) MTHFD2 (ProbeID ILMN_1674706, DFO versus Bas): 2,79
- logFC(D142_ DFO - D142_BAS) MT3 (ProbeID ILMN_1675947, DFO versus Bas): 3,00
- logFC(D142_ DFO - D142_BAS) DDIT3 (ProbeID ILMN_1676984, DFO versus Bas): 3,92
- logFC(D142_ DFO - D142_BAS) CHN1 (ProbeID ILMN_1678493, DFO versus Bas): -2,71
- logFC(D142_ DFO - D142_BAS) SLC3A2 (ProbeID ILMN_1679041, DFO versus Bas): 2,26
- logFC(D142_ DFO - D142_BAS) CLK1 (ProbeID ILMN_1679727, DFO versus Bas): 2,03
- logFC(D142_ DFO - D142_BAS) MAFF (ProbeID ILMN_1680139, DFO versus Bas): 2,48
- logFC(D142_ DFO - D142_BAS) GPRC5A (ProbeID ILMN_1682599, DFO versus Bas): 2,35
- logFC(D142_ DFO - D142_BAS) IER3 (ProbeID ILMN_1682717, DFO versus Bas): 2,14
- logFC(D142_ DFO - D142_BAS) RRAD (ProbeID ILMN_1683179, DFO versus Bas): 2,83
- logFC(D142_ DFO - D142_BAS) GPT2 (ProbeID ILMN_1684158, DFO versus Bas): 2,16
- logFC(D142_ DFO - D142_BAS) INHBB (ProbeID ILMN_1685714, DFO versus Bas): 2,06
- logFC(D142_ DFO - D142_BAS) TOP2A (ProbeID ILMN_1686097, DFO versus Bas): -2,19
- logFC(D142_ DFO - D142_BAS) COLEC12 (ProbeID ILMN_1689088, DFO versus Bas): -3,20
- logFC(D142_ DFO - D142_BAS) CXCL12 (ProbeID ILMN_1689111, DFO versus Bas): -2,92
- logFC(D142_ DFO - D142_BAS) PDLIM7 (ProbeID ILMN_1690125, DFO versus Bas): -2,43
- logFC(D142_ DFO - D142_BAS) CRABP2 (ProbeID ILMN_1690170, DFO versus Bas): -2,06
- logFC(D142_ DFO - D142_BAS) STC2 (ProbeID ILMN_1691884, DFO versus Bas): 3,54
- logFC(D142_ DFO - D142_BAS) PSAT1 (ProbeID ILMN_1692938, DFO versus Bas): 3,93
- logFC(D142_ DFO - D142_BAS) P4HA1 (ProbeID ILMN_1693334, DFO versus Bas): 3,24
- logFC(D142_ DFO - D142_BAS) GADD45A (ProbeID ILMN_1694075, DFO versus Bas): 2,63
- logFC(D142_ DFO - D142_BAS) KIF20A (ProbeID ILMN_1695658, DFO versus Bas): -2,76
- logFC(D142_ DFO - D142_BAS) DDIT4L (ProbeID ILMN_1696537, DFO versus Bas): -2,14
- logFC(D142_ DFO - D142_BAS) TNFRSF10B (ProbeID ILMN_1699265, DFO versus Bas): 2,74
